Measured values: patent US11136311B2, “Heteroaromatic derivatives as NIK inhibitors” (Janssen Pharmaceutica NV, priority 2016, dated 2021)
Where two headings read alike, the source gives them in different places.

Key:
[1] = molecular target: recombinant human NF-kappaB-inducing kinase (NIK/MAP3K14) (Homo sapiens (Human), UniProt Q99558); assay: Inhibition of auto-phosphorylation of recombinant human NIK/MAP3K14 activity (AlphaScreen); assay type: biochemical; conditions: averaged values over all measurements on all batches
Protocol: Inhibition of auto-phosphorylation of recombinant human NF-kappaB-inducing kinase (NIK/MAP3K14) activity (AlphaScreen®)
NIK/MAP3K14 auto-phosphorylation activity was measured using the AlphaScreen® (αscreen) format (Perkin Elmer). All compounds tested were dissolved in dimethyl sulfoxide (DMSO) and further dilutions were made in assay buffer. Final DMSO concentration was 1% (v/v) in assays. Assay buffer was 50 mM Tris pH 7.5 containing 1 mM EGTA (ethylene glycol tetraacetic acid), 1 mM DTT (dithiothreitol), 0.1 mM Na3VO4, 5 mM MgCl2, 0.01% Tween® 20. Assays were carried out in 384 well Alphaplates (Perkin Elmer). Incubations consisted of compound, 25 microM Adenosine-5′-triphosphate (ATP), and 0.2 nM NIK/MAP3K14. Incubations were initiated by addition of GST-tagged NIK/MAP3K14 enzyme, carried out for 1 h at 25° C. and terminated by addition of stop buffer containing anti-phospho-IKK Ser176/180 antibody. Protein A Acceptor and Glutathione-Donor beads were added before reading using an EnVision® Multilabel Plate Reader (Perkin Elmer). Signal obtained in the wells containing blank samples was subtracted from all other wells and IC50's were determined by fitting a sigmoidal curve to % inhibition of control versus Log10 compound concentration.

KMS12-BM cells = assay: Antiproliferative activity on KMS12-BM (NIK WT) multiple myeloma cells (CellTiter-Glo); assay type: cell-based, human; conditions: KMS12-BM (NIK WT) cells, 96 hr, averaged values, read-out: KMS-12 Proliferation inhibition (IC50 (nM))
Protocol: (§1) Determination of antiproliferative activity on JJN-3 (NIK translocated) and KMS12-BM (NIK WT) multiple myeloma cells
(§2) All compounds tested were dissolved in DMSO and further dilutions were made in culture medium. Final DMSO concentration was 0.3% (v/v) in cell proliferation assays. Viability was assessed using CellTiter-Glo cell viability assay kit (Promega). The human JJN-3 and KMS12-BM cells (DSMZ) were cultured in RPMI 1640 medium supplemented with 2 mM L-glutamine, and 10% fetal calf serum (PAA). Cells were routinely kept as suspension cells at 37° C. in a humidified 5% CO2 atmosphere. Cells were passaged at a seeding density of 0.2×10^6/ml twice a week. Cells were seeded in black tissue culture treated 96-well plates (Perkin Elmer). Densities used for plating ranged from 15000 (JJN3) to 20000 (KMS12BM) cells per well in a total volume of 135 μl medium. Drugs and/or solvents were added (15 μl) to a final volume of 150 μl. Following 96 hr of treatment, plates were removed from the incubator and allowed to equilibrate to room temperature for approx 10 min. 75 μl CellTiter-Glo reagent was added to each well that was then covered (Perkin Elmer Topseal) and shaken on plate shaker for 10 min. Luminescence was measured on a HTS Topcount (Perkin Elmer). Within an experiment, the results for each treatment were the mean of 2 replicate wells. For initial screening purposes, compounds were tested using a 9 point dilution curve (serial 1:3 dilutions). For each experiment, controls (containing no drug) and a blank incubation (containing cells read at the time of compound addition) were run in parallel. The blank value was subtracted from all control and sample values. For each sample, the mean value for cell growth (in relative light units) was expressed as a percentage of the mean value for cell growth of the control.

JJN-3 cells = assay: Antiproliferative activity on JJN-3 (NIK translocated) multiple myeloma cells (CellTiter-Glo); assay type: cell-based, human; conditions: JJN-3 (NIK translocated) cells, 96 hr, averaged values, read-out: JJN-3 Proliferation inhibition (IC50 (nM))
Protocol: as §1, §2

Sequence of recombinant human NF-kappaB-inducing kinase (NIK/MAP3K14) (Q99558 whole entry): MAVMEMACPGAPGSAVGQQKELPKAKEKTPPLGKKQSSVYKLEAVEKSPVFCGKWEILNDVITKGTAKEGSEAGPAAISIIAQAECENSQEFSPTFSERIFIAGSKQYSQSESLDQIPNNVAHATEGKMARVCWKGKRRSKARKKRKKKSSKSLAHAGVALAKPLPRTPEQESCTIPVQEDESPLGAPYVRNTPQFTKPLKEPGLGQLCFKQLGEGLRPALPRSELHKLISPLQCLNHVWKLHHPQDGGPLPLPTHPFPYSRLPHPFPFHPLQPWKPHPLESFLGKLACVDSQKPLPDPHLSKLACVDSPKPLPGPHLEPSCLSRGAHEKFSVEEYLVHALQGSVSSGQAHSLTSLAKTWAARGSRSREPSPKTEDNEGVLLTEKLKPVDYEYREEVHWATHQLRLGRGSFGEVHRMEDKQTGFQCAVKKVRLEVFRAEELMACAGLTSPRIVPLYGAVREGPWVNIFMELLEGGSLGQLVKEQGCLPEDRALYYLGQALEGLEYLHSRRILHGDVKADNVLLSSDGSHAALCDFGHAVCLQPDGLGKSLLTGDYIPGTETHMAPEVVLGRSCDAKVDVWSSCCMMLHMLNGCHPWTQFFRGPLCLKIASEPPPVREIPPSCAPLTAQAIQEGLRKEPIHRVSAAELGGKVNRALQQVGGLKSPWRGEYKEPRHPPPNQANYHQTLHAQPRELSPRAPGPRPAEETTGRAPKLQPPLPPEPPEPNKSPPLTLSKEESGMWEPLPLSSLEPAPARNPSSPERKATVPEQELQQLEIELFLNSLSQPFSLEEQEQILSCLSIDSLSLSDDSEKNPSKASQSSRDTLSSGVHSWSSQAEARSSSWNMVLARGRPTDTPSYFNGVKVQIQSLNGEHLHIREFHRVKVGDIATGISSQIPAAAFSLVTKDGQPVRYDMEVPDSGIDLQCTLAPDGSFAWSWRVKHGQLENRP

Row | SMILES | IC50 [1] [nM] | IC50 (KMS12-BM cells; Homo sapiens, KMS-12-BM, 96 h) [nM] | IC50 (JJN-3 cells; Homo sapiens, JJN-3, 96 h) [nM] | IC50 (KMS12-BM cells) [nM] | IC50 (JJN-3 cells) [nM]
1 | Cn1ccc(Nc2nccc(-c3cc(C#N)c4c(c3)C(C)(CO)CN4)n2)n1 (centres unmarked) [Compound 1] | 4 | 2430 | 250 |  | 
2 | Cn1nccc1Nc1nccc(-c2cc(C#N)c3c(c2)C(C)(CO)CN3)n1 (centres unmarked) [Compound 2] | 6.9 | 794 | 141 |  | 
3 | Cc1cc(Nc2nccc(-c3cc(C#N)c4c(c3)C(C)(CO)CN4)n2)n(C)n1 (centres unmarked) [Compound 3] | 4.2 | ~1230 | 407 |  | 
4 | Cn1cc(Nc2nccc(-c3cc(C#N)c4c(c3)C(C)(CO)CN4)n2)cn1 (centres unmarked) [Compound 4] | 2.5 | 162 | ~55 |  | 
5 | Cn1nc(C2(C)COC2)cc1Nc1nccc(-c2cc(C#N)c3c(c2)C(C)(CO)CN3)n1 (centres unmarked) [Compound 5] | 5.4 | > 10000 | 708 |  | 
6 | Cn1nc(C2CCCCC2)cc1Nc1nccc(-c2cc(C#N)c3c(c2)C(C)(CO)CN3)n1 (centres unmarked) [Compound 6] | 7.6 | > 10000 | 347 |  | 
7 | CC(C)(C)c1cc(Nc2nccc(-c3cc(C#N)c4c(c3)C(C)(CO)CN4)n2)n(CCO)n1 (centres unmarked) [Compound 10] | 13 | > 10000 | 724 |  | 
8 | Cc1cc(Nc2nccc(-c3cc(C#N)c4c(c3)C(C)(CO)CN4)n2)n(CCN(C)C)n1 (centres unmarked) [Compound 11] |  | 3700 | 576 |  | 
9 | CN1CCC(n2cc(Nc3nccc(-c4cc(C#N)c5c(c4)C(C)(CO)CN5)n3)cn2)CC1 (centres unmarked) [Compound 12] | 3.6 | ~214 | ~45 |  | 

Results, then the compound that gave them:

Row | IC50 [1] [nM] | IC50 (KMS12-BM cells; Homo sapiens, KMS-12-BM, 96 h) [nM] | IC50 (JJN-3 cells; Homo sapiens, JJN-3, 96 h) [nM] | IC50 (KMS12-BM cells) [nM] | IC50 (JJN-3 cells) [nM] | SMILES
10 | 9.1 | ~6170 | 1260 |  |  | Cc1cc(Nc2nccc(-c3cc(C#N)c4c(c3)[C@@](C)(CO)CN4)n2)n(C2CCS(=O)(=O)C2)n1 (mixture of isomers) [Compound 33]
11 | 4.1 |  | ~59 | ~1900 |  | Cc1cc(Nc2nccc(-c3cc(C#N)c4c(c3)[C@@](C)(CO)CN4)n2)n(CC2CCCO2)n1 (single isomer, unassigned) [Compound 51]
12 | 6.9 |  |  | > 10000 | 115 | Cc1cc(Nc2nccc(-c3cc(C#N)c4c(c3)[C@@](C)(CO)CN4)n2)n(CC2CCCO2)n1 (single isomer, unassigned) [Compound 52]
13 | 5.3 | > 10000 |  |  | 38 | Cc1cc(Nc2nccc(-c3cc(C#N)c4c(c3)[C@@](C)(CO)CN4)n2)n(CC2CCCCO2)n1 (single isomer, unassigned) [Compound 68]
14 | 5.8 |  |  | > 10000 | 78 | Cc1cc(Nc2nccc(-c3cc(C#N)c4c(c3)[C@@](C)(CO)CN4)n2)n(CC2CCCCO2)n1 (single isomer, unassigned) [Compound 69]
15 | 13 |  | 309 | 1580 |  | COC(C)Cn1nc(C)cc1Nc1nccc(-c2cc(C#N)c3c(c2)[C@@](C)(CO)CN3)n1 (single isomer, unassigned) [Compound 77]
16 | 9.8 |  |  | 9120 | 457 | COC(C)Cn1nc(C)cc1Nc1nccc(-c2cc(C#N)c3c(c2)[C@@](C)(CO)CN3)n1 (single isomer, unassigned) [Compound 78]
17 | 7.1 | ~7240 | 234 |  |  | COCCn1nc(C)cc1Nc1nccc(-c2cc(C#N)c3c(c2)C(C)(CO)CN3)n1 (centres unmarked) [Compound 14]
18 | 2.8 | 7080 | 525 |  |  | COCCn1ccc(Nc2nccc(-c3cc(C#N)c4c(c3)C(C)(CO)CN4)n2)n1 (centres unmarked) [Compound 16]
19 | 2.2 | 2720 | 163 |  |  | Cn1ccc(Nc2nccc(-c3cc(C#N)c4c(c3)[C@@](C)(CO)CN4)n2)n1 [Compound 19]
20 | 3.4 | 2510 | 229 |  |  | CC(C)n1ccc(Nc2nccc(-c3cc(C#N)c4c(c3)C(C)(CO)CN4)n2)n1 (centres unmarked) [Compound 20]
21 | 2.9 | 1020 | 813 |  |  | CC1(CO)CNc2c(C#N)cc(-c3ccnc(Nc4cc[nH]n4)n3)cc21 (centres unmarked) [Compound 21]
